Reference: paper PMC8398847, “Isavuconazole: Thermodynamic Evaluation of Processes Sublimation, Dissolution and Partition in Pharmaceutically Relevant Media” (Molecules, 2021)
Values after ≈ are worked out from the molar mass of the structure shown. Values joined by “and” are separate entries in the source; they are usually repeats but may differ in a detail not shown here. Equal values may be shown once. Read-outs that look alike come from different tables or passages of the source.

How the values were obtained:
[1] = Solubility by isothermal saturation (shake flask) method; format: physicochemical
Protocol: Solubility of drug was measured by the classical shake flask method at five temperatures: 293, 298, 303, 308 and 313 ± 0.2 K. This method determines the concentration of a test substance in a saturated solution, i.e., in equilibrium with the solid phase at a strictly fixed temperature. The compound studied and the selected solvent were placed into glass ampoules and stirred in an air thermostat.
The solid phase was sedimentated after stirring within 2 h. Then, the solutions were centrifuged using a thermostatic centrifuge Biofuge Stratos (Thermo scientific, Germany) at the appropriate temperature of the experiment for 5 min. The solid phase was removed by filtration using a filter MILLEX®HA 0.22 μm (Millipore, Ireland). The resulting solution, if necessary, was diluted with an appropriate solvent and examined on a Carry 50 spectrophotometer (Varian, Palo Alto, CA, USA, Software Version 3.00 (339)) in the ultraviolet region of the spectrum (operating wavelength range λ = 200–400 nm) with an accuracy of 2–4%.
The experimental value of solubility is an average value of three independent experiments. The absorption maximums for isavuconazole in the selected solvents have been determined at 274 nm in buffers solutions (Figure 4) and as 283 nm in hexane and alcohols (Figure S8). The calibration was carried out at room temperature using the solutions with known concentrations of drug in selected solvents.
The mole fraction concentration was calculated based on molarity (S, mol·L^−1) using Equation (8):(8) x=M2S/S(M2−M1)+1000ρ, where M1 and M2 are the molar masses of […], respectively, and ρ (g·cm^−3) is the density of the pure solvents. Densities of buffers solutions (pH 1.2, 2.0 and 7.4) were measured using densitometer DMA 4500 (Anton Paar, Austria) and published earlier. The values of densities using for conversion are given in Table S4 (Supporting Information).

[2] = Vapor pressure by transpiration (inert gas-carrier transfer) method; sublimation thermodynamic functions; format: physicochemical; details: for lnp: p in Pa
Protocol: The thermodynamic functions of sublimation were calculated as the fitting coefficients of the Clarke and Glew equation [17]:(1) Rlnp/p^0=ΔcrgGm°(θ)/θ+ΔcrgHm°(θ)(1/θ−1/T)+ΔcrgCp,m°(θ)(θ/T−1+lnT/θ) where ΔcrgHm°(θ) is the standard molar sublimation enthalpy, ΔcrgGm°(θ) is the standard molar Gibbs energy of sublimation, and ΔcrgCp,m°(θ) is the difference between the constant pressure standard molar heat capacity Cp,m°(g) of the gaseous compound and the constant pressure standard molar heat capacity Cp,m°(cr) of the crystalline compound. The value is the arbitrary reference temperature θ = 298.15 K; p^0 = 10^5 Pa is the reference pressure.
The transpiration method was used for the sublimation experiment. A stream of an inert gas (nitrogen) was passed over a sample at the constant temperature and flow rate; saturation of the gas with the substance vapor was achieved by low transpiration rate of gas. Then, the sublimated quantity of condensed vapor was determined. The volume of the inert gas and the amount of the sublimated material were used for calculation the vapor pressure over the sample of compound at this temperature. The following procedure was used for determination the amount of sublimed substance. The condensed sample was dissolved in a known volume of solvent Vsol. The mass of the substance was determined by the measurement of absorbance A of its solution (spectrophotometer Cary-50, Varian, Palo Alto, CA, USA, Software Version 3.00 (339)). According to the Lambert–Beer law the concentration of the solution c (mol·L^−1) can express knowing a value of the extinction coefficient ε (l·mol^−1·cm^−1) of the studied compound dissolved in the solvent and an absorbing path length (l):A = εcl(5) where l is an absorbing path length. Calculation the mass of sublimed compound was performed according to the equation:m = cVsolM(6)
M is the molar mass of the studied substance.
The vapor pressure p at each temperature was determined from the amount of the substance collected within a known time:p = mRTa/VM(7) where V is the volume of the gaseous nitrogen evaluated from the time measurement and the flow rate at the flow meter temperature Ta and the atmospheric pressure. Uncertainties for transpiration experiment parameters (T, m, Ta, V) are reported as standard deviations (Table 1). The combined standard uncertainty of vapor pressure measurements were estimated taking into account uncertainties of all variables involved in eq 7.
The details of equipment and experimental procedure are given in [33]. The sublimation technique was tested with benzoic acid as standard. The experimental vapor pressure values were obtained in the temperature interval of (307–385) K and were in good agreement with the results of studies within the limits of experimental error (Figure S7). The standard sublimation enthalpy of benzoic acid measured by us was 90.5 ± 0.3 kJ·mol^−1 and consistent with recommended by IUPAC value—89.7 ± 0.5 kJ·mol^−1 [38]. Each experiment at fixed temperature was repeated three times with the standard deviation of up to 5%.

[3] = 298.15 K, experimental, Clarke and Glew equation

solubility ([1]; aqueous buffer solutions, pH 7.4, buffers pH 7.4, 2.0, 1.2, 298.15 K, read-out: solubility in aqueous buffer solutions): 8.13 to 42.4 µM (≈ 3.56 to 18.5 µg/mL)
solubility ([1]; buffer pH 7.4, pH 7.4, aqueous buffer, thermodynamic from solid, buffer pH 7.4, 293.15 K, read-out: solubility S·10^6): 6.67 µM (≈ 2.92 µg/mL)
solubility ([1]; buffer pH 7.4, pH 7.4, aqueous buffer, thermodynamic from solid, buffer pH 7.4, 298.15 K, read-out: solubility S·10^6): 8.13 µM (≈ 3.56 µg/mL)
solubility ([1]; buffer pH 7.4, pH 7.4, aqueous buffer, thermodynamic from solid, buffer pH 7.4, 303.15 K, read-out: solubility S·10^6): 10 µM (≈ 4.37 µg/mL)
solubility ([1]; buffer pH 7.4, pH 7.4, aqueous buffer, thermodynamic from solid, buffer pH 7.4, 308.15 K, read-out: solubility S·10^6): 12.2 µM (≈ 5.32 µg/mL)
solubility ([1]; buffer pH 7.4, pH 7.4, aqueous buffer, thermodynamic from solid, buffer pH 7.4, 313.15 K, read-out: solubility S·10^6): 14.5 µM (≈ 6.37 µg/mL)
solubility in buffer pH 7.4 lower than in pH 1.2 ([1]; buffer pH 7.4 vs pH 1.2): 80%
solubility of uncharged forms in buffer pH 7.4 relative to ionized forms in buffer pH 1.2 ([1]; buffer pH 7.4 vs pH 1.2): five times lower
solubility ([1]; ethanol, 298.15 K, read-out: solubility): 180000 µM (≈ 78700 µg/mL)
solubility ([1]; hexane, organic solvent or mixture, thermodynamic from solid, hexane, 293.15 K, read-out: solubility S·10^4): 423 µM (≈ 185 µg/mL)
solubility ([1]; hexane, organic solvent or mixture, thermodynamic from solid, hexane, 298.15 K, read-out: solubility S·10^4): 537 µM (≈ 235 µg/mL)
solubility ([1]; hexane, organic solvent or mixture, thermodynamic from solid, hexane, 303.15 K, read-out: solubility S·10^4): 677 µM (≈ 296 µg/mL)
solubility ([1]; hexane, organic solvent or mixture, thermodynamic from solid, hexane, 308.15 K, read-out: solubility S·10^4): 847 µM (≈ 371 µg/mL)
solubility ([1]; hexane, organic solvent or mixture, thermodynamic from solid, hexane, 313.15 K, read-out: solubility S·10^4): 1050 µM (≈ 459 µg/mL)
solubility ([1]; seven solvents (buffers pH 1.2, 2.0, 7.4; hexane; alcohols), seven solvents, 293.15 to 313.15 K, read-out: solubility, span over solvents): 6.7 to 300000 µM (≈ 2.93 to 131000 µg/mL)
standard molar Gibbs energy of sublimation ΔcrgGm°(298.15 K) [2, 3]: 16.5 ± 0.048 kcal/mol
standard molar Gibbs energy of sublimation ΔcrgGm°(298.15 K) ([2]; 298.15 K, experimental, Clarke and Glew equation, listed as Isavuconazole): 16.5 kcal/mol
vapor pressure 10^3 p ([2]; 365.15 K): 1.95 Pa
saturated vapor pressure values ([2]; 365.15–383.15 K): 0.001–0.01 Pa
vapor pressure 10^3 p ([2]; 367.15 K): 2.50 Pa
vapor pressure 10^3 p ([2]; 369.15 K): 3.19 Pa
vapor pressure 10^3 p ([2]; 371.15 K): 4.02 Pa
vapor pressure 10^3 p ([2]; 372.15 K): 4.55 Pa
vapor pressure 10^3 p ([2]; 373.15 K): 5.11 Pa
vapor pressure 10^3 p ([2]; 374.15 K): 5.72 Pa
vapor pressure 10^3 p ([2]; 376.15 K): 7.22 Pa
vapor pressure 10^3 p ([2]; 378.15 K): 8.83 Pa
vapor pressure 10^3 p ([2]; 379.15 K): 9.83 Pa
vapor pressure 10^3 p ([2]; 380.15 K): 11.19 Pa
vapor pressure 10^3 p ([2]; 381.15 K): 12.30 Pa
vapor pressure 10^3 p ([2]; 382.15 K): 13.79 Pa
vapor pressure 10^3 p ([2]; 383.15 K): 15.37 Pa
lnp ([2]; 365.15 K): −6.241
lnp ([2]; 367.15 K): −5.991
lnp ([2]; 369.15 K): −5.749
lnp ([2]; 371.15 K): −5.515
lnp ([2]; 372.15 K): −5.393
lnp ([2]; 373.15 K): −5.277
lnp ([2]; 374.15 K): −5.163
lnp ([2]; 376.15 K): −4.931
lnp ([2]; 378.15 K): −4.729
lnp ([2]; 379.15 K): −4.622
lnp ([2]; 380.15 K): −4.493
lnp ([2]; 381.15 K): −4.398
lnp ([2]; 382.15 K): −4.283
lnp ([2]; 383.15 K): −4.175
ΔcrgSm°(298.15 K) ([2]; sublimation, 298.15 K): 230.4 ± 4.6 J·mol^−1·K^−1
ΔcrgCp,m° ([2]; sublimation, gas minus crystal heat capacity): −71.8 J·mol^−1·K^−1
Compound: C[C@@H](c1nc(-c2ccc(C#N)cc2)cs1)[C@](O)(Cn1cncn1)c1cc(F)ccc1F [IVZ, Isavuconazole]
standard molar enthalpy of sublimation ΔcrgHm°(298.15 K) [2, 3]: 33.01 kcal/mol and 33.01 ± 0.12 kcal/mol
